Tests used:
[1] = test system: Rice (oryza sativa) seedlings (cultiver Koshihikari); conditions: in vivo
Excerpt: (§3) A 1/10,000-are pot was filled with paddy field soil, and, after plowing, seeds of Echinochloa oryzicola, Cyperus difformis, Monochoria vaginalis, Scirpus juncoides, Eleocharis acicularis and other annual broadleaf weeds such as Lindernia procumbens, Rotala indica and Elatine triandra were sown. Rice (oryza sativa) seedlings (cultiver “Koshihikari”) at a 2.5-leaf stage were transplanted and kept under a submergence condition. After one day, the wettable powder or emulsifiable concentrate of the compound of the present invention, prepared according to Preparation Example, was diluted and dropped on a water surface at a predetermined dose.

[2] = test system: Scirpus juncoides; assay: Herbicidal efficacy test by pre-emergence treatment under submergence condition; format: in vivo; conditions: 15th day after treatment, ratings of 1 to 5
Excerpt: as §3

[3] = test system: sweet corn (Zea mays); assay: Injury to corn, soil treatment before germination under upland field condition; format: in vivo; conditions: dose 1 kg/ha; 21st day after treatment; ratings of 1 to 5
Excerpt: (§1) A vat having an area of 5×10 cm^2 and a depth of 5 cm was filled with upland field soil, and seeds of Chenopodium album, Echinochloa crus-galli, Amaranthus viridis, Digitaria ciliaris and sweet corn (Zea mays) were sown thereon and covered with soil by a depth of 0.5 cm.

[4] = test system: Amaranthus viridis; assay: Herbicidal efficacy test by soil treatment before germination under upland field condition; format: in vivo; conditions: dose 1 kg/ha; 21st day after treatment; ratings of 1 to 5; also: key: 1 shows no influence; 5 shows complete die
Excerpt: as §1

[5] = test system: Digitaria ciliaris; assay: as above; format: in vivo; conditions: dose 1 kg/ha; 21st day after treatment; ratings of 1 to 5
Excerpt: as §1

[6] = test system: Chenopodium album; assay: as above; format: in vivo; conditions: dose 1 kg/ha; 21st day after treatment; ratings of 1 to 5
Excerpt: as §1

[7] = test system: Echinochloa crus-galli; assay: as above; format: in vivo; conditions: dose 1 kg/ha; 21st day after treatment; ratings of 1 to 5
Excerpt: as §1

[8] = test system: Amaranthus viridis; assay: Herbicidal efficacy test by foliar treatment after germination under upland field condition; format: in vivo; conditions: dose 1 kg/ha, rated 1 to 5 on the 14th day after treatment; also: key: 1 shows no influence; 5 shows complete die
Excerpt: (§2) A vat having an area of 5×10 cm^2 and a depth of 5 cm was filled with upland field soil, and seeds of Chenopodium album, Echinochloa crus-galli, Amaranthus viridis and Abutilon theophrasti were sown thereon and covered with soil by a depth of 0.5 cm. Water was sprayed as required to grow them for 14 days.

[9] = test system: Chenopodium album; assay: as above; format: in vivo; conditions: dose 1 kg/ha, rated 1 to 5 on the 14th day after treatment
Excerpt: as §2

[10] = test system: Echinochloa crus-galli; assay: as above; format: in vivo; conditions: dose 1 kg/ha, rated 1 to 5 on the 14th day after treatment
Excerpt: as §2

[11] = test system: annual broadleaf weeds such as Lindernia procumbens, Rotala indica and Elatine triandra; assay: Herbicidal efficacy test by pre-emergence treatment under submergence condition; format: in vivo; conditions: 15th day after treatment, ratings of 1 to 5
Excerpt: as §3

[12] = test system: Eleocharis acicularis; assay: as above; format: in vivo; conditions: 15th day after treatment, ratings of 1 to 5; also: key: 1 shows no influence; 5 shows complete die
Excerpt: as §3

[13] = test system: Cyperus difformis; assay: as above; format: in vivo; conditions: 15th day after treatment, ratings of 1 to 5; also: key: 1 shows no influence; 5 shows complete die
Excerpt: as §3

[14] = test system: Abutilon theophrasti; assay: Herbicidal efficacy test by foliar treatment after germination under upland field condition; format: in vivo; conditions: Dc: Digitaria ciliaris (table footnote; method names Abutilon theophrasti), dose 1 kg/ha, rated 1 to 5 on the 14th day after treatment
[15] = test system: Monochoria vaginalis; assay: Herbicidal efficacy test by pre-emergence treatment under submergence condition; format: in vivo; conditions: 15th day after treatment, ratings of 1 to 5; also: key: 1 shows no influence; 5 shows complete die
Excerpt: as §3

[16] = test system: Echinochloa oryzicola; assay: as above; format: in vivo; conditions: 15th day after treatment, ratings of 1 to 5
Excerpt: as §3
For Herbicidal activity Ca in this document: key: 1 shows no influence; 5 shows complete die.

Cc1cc(Oc2c(Cl)cc(C(F)(F)F)cc2Cl)nn1C(=O)NCC1CCCO1 (stereo not shown) [Compound 3-183]
1: Injury Zm [3]
4: Herbicidal activity Dc [5]
5: Herbicidal efficacy Sj ([2]; dose 0.5 kg/ha) | Herbicidal efficacy Sj ([2]; dose 1 kg/ha) | Herbicidal activity Av [4] | Herbicidal activity Ca [6] | Herbicidal activity Av [8] | Herbicidal activity Ca [9] | Herbicidal activity Ec [10] | Herbicidal efficacy Blw ([11]; dose 0.5 kg/ha) | Herbicidal efficacy Blw ([11]; dose 1 kg/ha) | Herbicidal efficacy Ea ([12]; dose 0.5 kg/ha) | Herbicidal efficacy Ea ([12]; dose 1 kg/ha) | Herbicidal efficacy Cd ([13]; dose 0.5 kg/ha) | Herbicidal efficacy Cd ([13]; dose 1 kg/ha) | Herbicidal activity Dc [14] | Herbicidal efficacy Mv ([15]; dose 0.5 kg/ha) | Herbicidal efficacy Mv ([15]; dose 1 kg/ha) | Herbicidal efficacy Eo ([16]; dose 0.5 kg/ha) | Herbicidal efficacy Eo ([16]; dose 1 kg/ha)
3: Herbicidal activity Ec [7]
2: Injury Os [1]
